Data: ChEMBL document CHEMBL1201862, “PubChem BioAssay data set” (2004)
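Five compound concentrations were applied to cells in 96-well plates for 48 hours; endpoints were derived by simple linear interpolation of the resulting dose-response curve. At the GI50, growth is halved.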 Activity calls are given as the source filed them. No stated cut-off is given here; in the data, active = GI50 up to about 1.1 µM and inactive = higher.

How the values were obtained:
Test in all cases: NCI tumour cell line growth inhibition, 48 h
UACC-257 = test system: UACC-257
SK-OV-3 = test system: SK-OV-3
Hs-578T = test system: Hs-578T
T47D = test system: T47D
SN12C = test system: SN12C
SNB-19 = test system: SNB-19
IGROV-1 = test system: IGROV-1
SW-620 = test system: SW-620
SF-539 = test system: SF-539
MDA-MB-231 = test system: MDA-MB-231
UO-31 = test system: UO-31
NCI-H23 = test system: NCI-H23
RXF 393 = test system: RXF 393
NCI-H522 = test system: NCI-H522
M14 = test system: M14
KM12 = test system: KM12
MCF7 = test system: MCF7
CCRF-CEM = test system: CCRF-CEM
RPMI-8226 = test system: RPMI-8226
UACC-62 = test system: UACC-62

Structure (SMILES) | GI50 (UACC-257) | GI50 (SK-OV-3) | GI50 (Hs-578T) | GI50 (T47D) | GI50 (SN12C) | GI50 (SNB-19) | GI50 (IGROV-1) | GI50 (SW-620) | GI50 (SF-539) | GI50 (MDA-MB-231) | GI50 (UO-31) | GI50 (NCI-H23) | GI50 (RXF 393) | GI50 (NCI-H522) | GI50 (M14) | GI50 (KM12) | GI50 (MCF7) | GI50 (CCRF-CEM) | GI50 (RPMI-8226) | GI50 (UACC-62)
Cn1c2c(c3c(=O)[nH]ncc31)CCc1ccccc1-2 | 17.9 µM (inactive) | 61.1 µM (inactive) | 10.2 µM (inactive) | 28.6 µM (inactive) | 34.8 µM (inactive) | 45.8 µM (inactive) | 19 µM (inactive) | 34.1 µM (inactive) | 46.5 µM (inactive) | 21.1 µM (inactive) | 22.5 µM (inactive) | 26.1 µM (inactive) | 18.8 µM (inactive) | 42.5 µM (inactive) | 18.6 µM (inactive) | 23 µM (inactive) | 21.6 µM (inactive) | 20.8 µM (inactive) | 25.5 µM (inactive) | –
O=c1cc(-c2ccccc2)[nH]c2ccc(S)cc12 | 42.5 µM (inactive) | 23.7 µM (inactive) | 26.2 µM (inactive) | 15.1 µM (inactive) | 18.3 µM (inactive) | 64.4 µM (inactive) | 29.8 µM (inactive) | 38.7 µM (inactive) | 72.3 µM (inactive) | 65.2 µM (inactive) | – | 33.9 µM (inactive) | 31.5 µM (inactive) | 21.7 µM (inactive) | 25.9 µM (inactive) | 28.8 µM (inactive) | 24.2 µM (inactive) | 22.1 µM (inactive) | 44.2 µM (inactive) | 17.2 µM (inactive)
Cc1ccc(/C=C2/N/C(=N\N=C/C(O)C(O)C(O)CO)NC2=O)cc1 (stereo unspecified) | > 100 µM (inactive) | > 100 µM (inactive) | > 100 µM (inactive) | 79.4 µM (inactive) | > 100 µM (inactive) | > 100 µM (inactive) | > 100 µM (inactive) | > 100 µM (inactive) | > 100 µM (inactive) | > 100 µM (inactive) | > 100 µM (inactive) | > 10 µM (inactive) | > 100 µM (inactive) | 71.6 µM (inactive) | > 100 µM (inactive) | > 100 µM (inactive) | > 100 µM (inactive) | – | > 100 µM (inactive) | –
CC[C@@]1(O)C(=O)OCc2c1cc1n(c2=O)Cc2c-1nc1ccccc1c2/C=N\NC(=O)CN | 2.49 µM (inactive) | – | > 40.5 µM (inactive) | 0.0486 µM (active) | 0.0458 µM (active) | < 0.0397 µM (active) | 2.59 µM (inactive) | 0.315 µM (active) | 0.0258 µM (active) | 23 µM (inactive) | 0.33 µM (active) | 0.0676 µM (active) | 0.873 µM (active) | 1.02 µM (active) | 0.126 µM (active) | 6.14 µM (inactive) | 0.0495 µM (active) | < 0.0163 µM (active) | 0.147 µM (active) | 0.0333 µM (active)
Cc1nc2c(Cl)cc(Cl)cc2c2c1CCO2 | > 100 µM (inactive) | – | > 100 µM (inactive) | > 100 µM (inactive) | > 100 µM (inactive) | > 100 µM (inactive) | > 100 µM (inactive) | > 100 µM (inactive) | > 100 µM (inactive) | > 100 µM (inactive) | 67 µM (inactive) | > 100 µM (inactive) | 87.3 µM (inactive) | > 100 µM (inactive) | > 100 µM (inactive) | > 100 µM (inactive) | > 100 µM (inactive) | 48.4 µM (inactive) | > 100 µM (inactive) | > 100 µM (inactive)
O=c1c2ncn(C3CC(O)C(CO)O3)c2nnn1Cc1ccccc1[N+](=O)[O-] (stereo unspecified) | > 100 µM (inactive) | > 100 µM (inactive) | > 100 µM (inactive) | > 100 µM (inactive) | > 100 µM (inactive) | > 100 µM (inactive) | > 100 µM (inactive) | > 100 µM (inactive) | > 100 µM (inactive) | > 100 µM (inactive) | > 100 µM (inactive) | > 100 µM (inactive) | 17.8 µM (inactive) | > 100 µM (inactive) | > 100 µM (inactive) | > 100 µM (inactive) | > 100 µM (inactive) | > 100 µM (inactive) | > 100 µM (inactive) | > 100 µM (inactive)
COC(=O)c1ccccc1/C=C1\Cc2cc(C)cc(C)c2C1=O | > 100 µM (inactive) | – | > 100 µM (inactive) | > 100 µM (inactive) | > 100 µM (inactive) | 72.4 µM (inactive) | > 100 µM (inactive) | > 100 µM (inactive) | > 100 µM (inactive) | > 100 µM (inactive) | – | > 100 µM (inactive) | > 100 µM (inactive) | 5.46 µM (inactive) | – | > 100 µM (inactive) | > 100 µM (inactive) | > 100 µM (inactive) | > 100 µM (inactive) | 53.5 µM (inactive)
O=C1OC(c2ccccc2)=N/C1=C\c1ccc(Br)cc1 | > 100 µM (inactive) | > 100 µM (inactive) | > 100 µM (inactive) | > 100 µM (inactive) | > 100 µM (inactive) | > 100 µM (inactive) | > 100 µM (inactive) | > 100 µM (inactive) | > 100 µM (inactive) | > 100 µM (inactive) | – | > 100 µM (inactive) | > 100 µM (inactive) | > 100 µM (inactive) | > 100 µM (inactive) | > 100 µM (inactive) | > 100 µM (inactive) | 26.4 µM (inactive) | 96.6 µM (inactive) | > 100 µM (inactive)
O=C(c1cc(Cl)ccc1Cl)N1CCN(c2ccc(Cl)c(Cl)c2)CC1 | 29.9 µM (inactive) | – | 45.9 µM (inactive) | 2.45 µM (inactive) | 33.3 µM (inactive) | > 10 µM (inactive) | 39.4 µM (inactive) | 49.1 µM (inactive) | 19.2 µM (inactive) | 29.1 µM (inactive) | 14.8 µM (inactive) | 33.5 µM (inactive) | 15.4 µM (inactive) | 20.7 µM (inactive) | > 10 µM (inactive) | 16 µM (inactive) | 8.67 µM (inactive) | 41.6 µM (inactive) | 74.6 µM (inactive) | –
CC(C)C(C/C=C1\CC(CO)(COC(=O)C2CCCCC2)OC1=O)C(C)C (stereo unspecified) | 32.2 µM (inactive) | > 100 µM (inactive) | 13.2 µM (inactive) | 21.2 µM (inactive) | 16.7 µM (inactive) | 16.3 µM (inactive) | 22.9 µM (inactive) | 21.3 µM (inactive) | 20.3 µM (inactive) | 16.8 µM (inactive) | 17.4 µM (inactive) | 20.6 µM (inactive) | 19.1 µM (inactive) | 16.5 µM (inactive) | 21.8 µM (inactive) | 18.4 µM (inactive) | 21.2 µM (inactive) | 16.9 µM (inactive) | – | 43.8 µM (inactive)
c1ccc(CSSSCc2ccccc2)cc1 [DIBENZYL TRISULFIDE] | 5.57 µM (inactive) | 3.61 µM (inactive) | 8.32 µM (inactive) | 19.8 µM (inactive) | 0.912 µM (active) | 15.3 µM (inactive) | 2.8 µM (inactive) | 0.115 µM (active) | – | 2.48 µM (inactive) | 6.55 µM (inactive) | 2.4 µM (inactive) | 1.72 µM (inactive) | 0.363 µM (active) | 2.27 µM (inactive) | 2.67 µM (inactive) | 0.385 µM (active) | 0.0269 µM (active) | 0.313 µM (active) | 2.15 µM (inactive)
